From patent publication US20250325625A1, “ANTIMICROBIAL ASSOCIATION IN THE TREATMENT OF P. AERUGINOSA BIOFILM-ASSOCIATED INFECTIONS” (Zambon S.P.A., priority 2022, published 2025)
Values after ≈ are worked out from the molar mass of the structure shown. Like-named read-outs stand apart in the source and are kept apart here.

Key:
P. aeruginosa strains [1] = experiment: Antimicrobial susceptibility (MIC), reference broth microdilution method; assay type: cell-based
Protocol: Fifteen clinical isolates were from CF, a MDR clinical isolate from Respiratory Tract Infection (RTI) from an Intensive Care Unit (ICU), and the reference strain P. aeruginosa PAO1 (Table 1). Identification was performed by MALDI-TOF MS (Bruker, Shimadzu). Antimicrobial susceptibility was determined using the reference broth microdilution method (CLSIMethods2018). Whole genome sequencing of clinical isolates was performed with the Illumina (San Diego, CA, USA) MiSeq platform, using a 2×150 bp paired-end approach. Raw reads were assembled using SPAdes (Bankevich et al. 2012 J Comput Biol 19(5):455-77.), and draft genomes were used to determine MLST- and O-types at the Oxford PubMLST site (https://pubmlst.org/) (Jolley et al. 2018 Wellcome Open Res 3:124) and at the Center for Genomic Epidemiology site (https://cge.cbs.dtu.dk/services/PAst-1.0/) (ThraneJCM2016), respectively. The complete genome of P. aeruginosa Z154 was obtained by combining results from Illumina with those obtained using the Oxford Nanopore Technologies (Oxford, UK) MinION platform, and de novo assembly was generated using Unicycler v0.4.4.

[2] = system: P. aeruginosa preformed biofilms; experiment: Biofilm susceptibility testing, Nunc-TSP lid system (Calgary biofilm device), preformed biofilms; assay type: cell-based; details: P. aeruginosa Z154, NAC 8000 mg/L
Protocol: In the present invention the Calgary biofilm device (also referred to as Nunc-TSP lid system in the experimental part) was the method selected to test the in vitro antibiofilm activity of colistin and NAC, alone or in combination. NAC stock solutions (100 g/L) were prepared immediately before use. NAC powder (Zambon, Bresso, Italy) was dissolved in sterile distilled water, pH was adjusted at 6.5-6.8 with NaOH 10 M and the solution was filtered through a 0.22-μm membrane filter. All experiments were performed in cation-adjusted Mueller-Hinton broth (CAMHB) (Becton Dickinson, Milan, Italy), unless otherwise specified, starting from an appropriately concentrated medium to avoid broth dilution when NAC solution were used.
Colistin Colistin stock solutions (10 mg/L) were prepared immediately before use, by dissolving colistin powder (colistin sulfate, AppliChem, Darmstadt, Germany) in sterile distilled water.
Assay. Biofilm susceptibility testing was first performed using the Nunc-TSP lid system (Thermo Fisher Scientific, Waltham, MA, USA), as described previously (Harrison J J et al., Nat Protoc, 2010; 5: 1236-54). Briefly, biofilms were grown for 24 hours in CAMHB at 35° C. under static conditions. […] Median cfu per peg (cfu/peg) was then determined by plating 10 μL of appropriate dilutions of the recovery medium onto tryptic soy agar (TSA) (Oxoid) and incubating for 24 hours at 35° C. […]

[3] = system: P. aeruginosa Z154 and Z34 preformed biofilms in ASM; experiment: Artificial Sputum Medium (ASM) biofilm model; assay type: cell-based
Protocol: Methods. The potential antibiofilm synergism of NAC/colistin combinations was further investigated using an in vitro ASM biofilm model (Kirchner et al. 2012 Immunology 64:e3857), in order to mimic P. aeruginosa biofilm conditions within the CF mucus. […] In brief, biofilms were grown in ASM in 24-well tissue culture treated plates, for 72 hours at 35° C. under static conditions. Preformed biofilms were then exposed to NAC 8000 mg/L and colistin 64 mg/L, alone and in combination. […] After 24 hours of exposure (i.e., 35° C., static conditions), bacterial biofilms were disrupted by 30 minutes of sonication followed by manual pipetting, and the median cfu per mL (cfu/mL) was determined following the same protocol described for the Nunc-TSP lid assay. Data from this biofilm model were obtained in at least three independent experiments, with at least twelve replicates per condition per experiment.

[4] = system: collection of respiratory pathogens; details: high NAC concentrations; Landini et al. 2016; cited from earlier work
[5] = system: P. aeruginosa Z154 planktonic culture; experiment: Time-kill assays against planktonic cultures under aerobic and anaerobic conditions; assay type: cell-based; details: colistin concentration higher than 0.25 mg/L, data not shown
Protocol: Methods. Time-kill assays were performed according to CLSI guidelines (CLSI Methods M26A) with the colistin-susceptible strain Z154. Colistin 0.25 mg/L was tested alone and in combination with NAC 8000 mg/L under both aerobic and anaerobic conditions. […] The medium (CAMHB) used to obtain anoxic cultures was placed under anaerobic atmosphere by using AnaeroGen kit (Oxoid) for 3 days prior to use and during the whole experiment. The killing curves were carried out in borosilicate glass bottles with a final volume of 20 mL of CAMHB. At 0, 2, 4, 8 and 24 hours of exposure ten-fold dilutions were plated on TSA, and the number of cfu/mL was determined (detection limit, 17 cfu/mL). Data were obtained from at least four independent experiments, with two replicates per condition per experiment.

P. aeruginosa strains [6] = experiment: Antimicrobial susceptibility (MIC), reference broth microdilution method; assay type: cell-based; details: isolate FC237, in the presence of NAC

CC(=O)N[C@@H](CS)C(=O)O [NAC, N-acetylcysteine]
MIC (P. aeruginosa strains [1]; Pseudomonas aeruginosa, PAO1, strain PAO1, non-mucoid, wound, read-out: MIC): > 64 mg/mL
MIC (P. aeruginosa strains [1]; Pseudomonas aeruginosa, strain FC237, non-mucoid, CF, colistin-resistant, read-out: MIC): > 32 mg/mL
MIC (P. aeruginosa strains [1]; Pseudomonas aeruginosa, strain FC238, non-mucoid, CF, colistin-resistant, read-out: MIC): > 32 mg/mL
MIC (P. aeruginosa strains [1]; Pseudomonas aeruginosa, strain FZ99, non-mucoid, RTI ICU, colistin-resistant, read-out: MIC): 64 mg/mL (≈ 392 mM)
MIC (P. aeruginosa strains [1]; Pseudomonas aeruginosa, strain M1, mucoid, CF, read-out: MIC): 16 mg/mL (≈ 98 mM)
MIC (P. aeruginosa strains [1]; Pseudomonas aeruginosa, strain M4, mucoid, CF, read-out: MIC): 32 mg/mL (≈ 196 mM)
MIC (P. aeruginosa strains [1]; Pseudomonas aeruginosa, strain M7, mucoid, CF, read-out: MIC): 64 mg/mL (≈ 392 mM)
MIC (P. aeruginosa strains [1]; Pseudomonas aeruginosa, strain M13, mucoid, CF, read-out: MIC): 32 mg/mL (≈ 196 mM)
MIC (P. aeruginosa strains [1]; Pseudomonas aeruginosa, strain M19, mucoid, CF, read-out: MIC): 64 mg/mL (≈ 392 mM)
MIC (P. aeruginosa strains [1]; Pseudomonas aeruginosa, strain M25, mucoid, CF, read-out: MIC): 16 mg/mL (≈ 98 mM)
MIC (P. aeruginosa strains [1]; Pseudomonas aeruginosa, strain M32, mucoid, CF, read-out: MIC): 16 mg/mL (≈ 98 mM)
MIC (P. aeruginosa strains [1]; Pseudomonas aeruginosa, strain M42, mucoid, CF, read-out: MIC): > 32 mg/mL
MIC (P. aeruginosa strains [1]; Pseudomonas aeruginosa, strain Z33, non-mucoid, CF, read-out: MIC): 16 mg/mL (≈ 98 mM)
MIC (P. aeruginosa strains [1]; Pseudomonas aeruginosa, strain Z34, non-mucoid, CF, read-out: MIC): > 16 mg/mL
MIC (P. aeruginosa strains [1]; Pseudomonas aeruginosa, strain Z35, non-mucoid, CF, read-out: MIC): 16 mg/mL (≈ 98 mM)
MIC (P. aeruginosa strains [1]; Pseudomonas aeruginosa, strain Z152, mucoid, CF, read-out: MIC): 8 mg/mL (≈ 49 mM)
MIC (P. aeruginosa strains [1]; Pseudomonas aeruginosa, strain Z154, mucoid, CF, read-out: MIC): 16 mg/mL (≈ 98 mM)
antibiofilm activity of NAC alone [2]: observed
antibiofilm activity of NAC alone ([3]; P. aeruginosa Z154, ASM model, NAC 8000 mg/L): not observed
effect on activity of carbapenems [4]: compromised the activity of carbapenems
interference with activity of the most commonly used antibiotics [4]: do not interfere

colistin [CST]
colistin MIC values (P. aeruginosa strains [1]; colistin-susceptible strains): 0.001 to 0.002 mg/mL
MIC (P. aeruginosa strains [1]; strain FC237, non-mucoid, CF, colistin-resistant): 0.512 mg/mL
MIC (P. aeruginosa strains [1]; strain FC238, non-mucoid, CF, colistin-resistant): 0.008 mg/mL
MIC (P. aeruginosa strains [1]; strain FZ99, non-mucoid, RTI ICU, colistin-resistant): 0.004 mg/mL
MIC (P. aeruginosa strains [1]; strain M1, mucoid, CF): 0.002 mg/mL
MIC (P. aeruginosa strains [1]; strain M4, mucoid, CF): 0.002 mg/mL
MIC (P. aeruginosa strains [1]; strain M7, mucoid, CF): 0.002 mg/mL
MIC (P. aeruginosa strains [1]; strain M13, mucoid, CF): 0.001 mg/mL
MIC (P. aeruginosa strains [1]; strain M19, mucoid, CF): 0.001 mg/mL
MIC (P. aeruginosa strains [1]; strain M25, mucoid, CF): 0.002 mg/mL
MIC (P. aeruginosa strains [1]; strain M32, mucoid, CF): 0.002 mg/mL
MIC (P. aeruginosa strains [1]; strain M42, mucoid, CF): 0.002 mg/mL
MIC (P. aeruginosa strains [1]; strain PAO1, non-mucoid, wound): 0.002 mg/mL
MIC (P. aeruginosa strains [1]; strain Z33, non-mucoid, CF): 0.001 mg/mL
MIC (P. aeruginosa strains [1]; strain Z34, non-mucoid, CF): 0.002 mg/mL
MIC (P. aeruginosa strains [1]; strain Z35, non-mucoid, CF): 0.001 mg/mL
MIC (P. aeruginosa strains [1]; strain Z152, mucoid, CF): 0.002 mg/mL
MIC (P. aeruginosa strains [1]; strain Z154, mucoid, CF): 0.002 mg/mL
concentration of colistin which allowed to observe a synergism ([3]; ASM model, with NAC 8000 mg/L): 32 ×MIC
antibiofilm activity of colistin in absence of NAC ([3]; higher colistin concentrations (>64 mg/L), data not shown): eradication of the biofilm cultures
colistin antibiofilm activity ([3]; lower colistin concentrations, preliminary experiments, data not shown): did not show either colistin antibiofilm activity
effect on planktonic cultures [5]: eradication of the planktonic cultures
colistin MIC reduced in the presence of NAC (fraction of MIC) (P. aeruginosa strains [6]): 1/64
